Test results as given in patent US7691901B2, “Carotenoid analogs or derivatives for the inhibition and amelioration of inflammation” (Cardax Pharmaceuticals Inc., priority 2004, dated 2010).

Type: physicochemical
Experimental: Determination of aqueous solubility/dispersibility. 30.13 mg of 3 was added to 1 mL of USP-purified water. The sample was rotated for 2 hours, then centrifuged for 5 minutes. […] A 125-μL aliquot of the solution was then diluted to 25 mL. The sample was analyzed by UV/Vis spectroscopy at 436 nm, and the absorbance was compared to a standard curve compiled from 4 standards of known concentration.
The sample was rotated for 2 hours, then centrifuged for 5 minutes. […] A 125-μL aliquot of the solution was then diluted to 25 mL. The sample was analyzed by UV/Vis spectroscopy at 411 nm, and the absorbance was compared to a standard curve compiled from 4 standards of known concentration.

CC1=C(/C=C/C(C)=C/C=C/C(C)=C/C=C/C=C(C)/C=C/C=C(C)/C=C/C2=C(C)C(=O)C(OC(=O)CCC(=O)O)CC2(C)C)C(C)(C)CC(OC(=O)CCC(=O)O)C1=O (stereo not shown) [Cardax, disodium disuccinate astaxanthin]
water dispersibility: 8.64 mg/mL
